Measurements: patent US8247211B2, “Glycopeptide antibiotics” (American Cyanamid Company, priority 2001, dated 2012)
In brackets after ≈: the same amount, converted by molar mass.

Legend:
Assay in all cases: In vitro antibacterial evaluation: minimum inhibitory concentration (MIC), broth dilution method
Assay type in all cases: cell-based
Conditions in all cases: 18 hours at 35° C.
Streptococcus sp. = test system: Streptococcus sp.
Procedure, shortened: (§1)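 NCCLS M7-A2 broth dilution with Mueller-Hinton II, testing 64-0.06 μg/mL antibiotic against 5×10^5 CFU/mL inocula. Test strains include recent methicillin-, penicillin- or vancomycin-resistant clinical isolates. MIC is the lowest concentration preventing growth.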

Escherichia coli = test system: Escherichia coli
Procedure, shortened: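 Using Muller-Hinton II […] and an inoculum of 5×10^5 CFU/mL, antibiotic dilutions from 64 down to 0.06 μg/mL were tested following NCCLS M7-A2. The MIC is the lowest concentration inhibiting growth, including in methicillin-, penicillin- or vancomycin-resistant clinical isolates.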

Enterococcus sp. = test system: Enterococcus sp.
Procedure, shortened: as §1

Staphylococcus sp. = test system: Staphylococcus sp.
Procedure, shortened: as §1

[1] = Streptococcus agalactiae (GC 4564)
[2] = Streptococcus pneumoniae (ATCC 6301)
[3] = Streptococcus pneumoniae (GC 1894)
[4] = Streptococcus pneumoniae (GC 4565)
[5] = Streptococcus pyogenes (GC 4563)
[6] = broth dilution, inoculum 5×10^5 CFU/mL

SMILES: CC(c1ccccc1)C1NC(=O)CNC(=O)C(CO)NC(=O)C(CC2CNC(=N)N2C2OC(CO)C(O)C(O)C2O)NC(=O)C(CC2CNC(=N)N2)NC(=O)C(Cc2ccc(OC3OC(CO)C(OC4OC(CO)C(OCc5ccc(OCc6ccccc6)cc5)C(O)C4O)C(O)C3O)cc2)NC1=O (centres unmarked) [Example 246a]
- MIC Streptococcus agalactiae (GC 4564) (Streptococcus sp.; [1]): 0.5 µg/mL (≈ 0.343 µM)
- MIC Streptococcus pneumoniae (ATCC 6301) (Streptococcus sp.; [2]): 0.25 µg/mL (≈ 0.171 µM)
- MIC Streptococcus pneumoniae (GC 1894) (Streptococcus sp.; [3]): <0.12 µg/mL
- MIC Streptococcus pneumoniae (GC 4565) (Streptococcus sp.; [4]): 0.25 µg/mL (≈ 0.171 µM)
- MIC Streptococcus pyogenes (GC 4563) (Streptococcus sp.; [5]): 0.5 µg/mL (≈ 0.343 µM)
- MIC Streptococcus agalactiae (GC 4564) (Streptococcus sp.; [6]): 0.5 µg/mL (≈ 0.343 µM)
- MIC Streptococcus pneumoniae (ATCC 6301) (Streptococcus sp.; [6]): 0.25 µg/mL (≈ 0.171 µM)
- MIC Streptococcus pneumoniae (GC 1894) (Streptococcus sp.; [6]): <0.12 µg/mL
- MIC Streptococcus pneumoniae (GC 4565) (Streptococcus sp.; [6]): 0.25 µg/mL (≈ 0.171 µM)
- MIC Streptococcus pyogenes (GC 4563) (Streptococcus sp.; [6]): 0.5 µg/mL (≈ 0.343 µM)
- MIC Escherichia coli (ATCC 25922) (Escherichia coli; Escherichia coli (ATCC 25922)): 16 µg/mL (≈ 11 µM)
- MIC Escherichia coli (GC 4559) (Escherichia coli; Escherichia coli (GC 4559)): 16 µg/mL (≈ 11 µM)
- MIC Escherichia coli (GC 4560) (Escherichia coli): 2 µg/mL (≈ 1.37 µM)
- MIC Enterococcus avium (GC 4558) (Enterococcus sp.): 2 µg/mL (≈ 1.37 µM)
- MIC Enterococcus faecalis (ATCC 29212) (Enterococcus sp.; Enterococcus faecalis (ATCC 29212)): 4 µg/mL (≈ 2.74 µM)
- MIC Enterococcus faecalis (GC 2242) (Enterococcus sp.; Enterococcus faecalis (GC 2242)): 4 µg/mL (≈ 2.74 µM)
- MIC Enterococcus faecalis (GC 2691) (Enterococcus sp.; Enterococcus faecalis (GC 2691)): 8 µg/mL (≈ 5.48 µM)
- MIC Enterococcus faecalis (GC 3059) (Enterococcus sp.; Enterococcus faecalis (GC 3059)): 4 µg/mL (≈ 2.74 µM)
- MIC Enterococcus faecalis (GC 4552) (Enterococcus sp.; Enterococcus faecalis (GC 4552)): 4 µg/mL (≈ 2.74 µM)
- MIC Enterococcus faecalis (GC 4553) (Enterococcus sp.; Enterococcus faecalis (GC 4553)): 2 µg/mL (≈ 1.37 µM)
- MIC Enterococcus faecalis (GC 4554) (Enterococcus sp.; Enterococcus faecalis (GC 4554)): 4 µg/mL (≈ 2.74 µM)
- MIC Enterococcus faecalis (GC 6189) (Enterococcus sp.; Enterococcus faecalis (GC 6189)): 4 µg/mL (≈ 2.74 µM)
- MIC Enterococcus faecium (GC 2243) (Enterococcus sp.; Enterococcus faecium (GC 2243)): 4 µg/mL (≈ 2.74 µM)
- MIC Enterococcus faecium (GC 4556) (Enterococcus sp.; Enterococcus faecium (GC 4556)): 4 µg/mL (≈ 2.74 µM)
- MIC Enterococcus faecium (GC 4557) (Enterococcus sp.): 2 µg/mL (≈ 1.37 µM)
- MIC Enterococcus faecalis (GC 2242) (Enterococcus sp.; [6]): 4 µg/mL (≈ 2.74 µM)
- MIC Enterococcus faecalis (GC 2691) (Enterococcus sp.; [6]): 8 µg/mL (≈ 5.48 µM)
- MIC Enterococcus faecalis (GC 3059) (Enterococcus sp.; [6]): 4 µg/mL (≈ 2.74 µM)
- MIC Coagulase Negative Staphylococcus (GC 4547) (Staphylococcus sp.): 1 µg/mL (≈ 0.685 µM)
- MIC Coagulase Negative Staphylococcus (GC 4548) (Staphylococcus sp.): 1 µg/mL (≈ 0.685 µM)
- MIC Coagulase Negative Staphylococcus (GC 4549) (Staphylococcus sp.): 1 µg/mL (≈ 0.685 µM)
- MIC Coagulase Negative Staphylococcus (GC 4551) (Staphylococcus sp.): 2 µg/mL (≈ 1.37 µM)
- MIC Coagulase Negative Staphylococcus (GC 6257) (Staphylococcus sp.): 2 µg/mL (≈ 1.37 µM)
- MIC Staphylococcus aureus (ATCC 29213) (Staphylococcus sp.): 2 µg/mL (≈ 1.37 µM)
- MIC Staphylococcus aureus (GC 1131) (Staphylococcus sp.; Staphylococcus aureus (GC 1131)): 4 µg/mL (≈ 2.74 µM)
- MIC Staphylococcus aureus (GC 3051) (Staphylococcus sp.): 1 µg/mL (≈ 0.685 µM)
- MIC Staphylococcus aureus (GC 3053) (Staphylococcus sp.; Staphylococcus aureus (GC 3053)): 2 µg/mL (≈ 1.37 µM)
- MIC Staphylococcus aureus (GC 4541) (Staphylococcus sp.): 1 µg/mL (≈ 0.685 µM)
- MIC Staphylococcus aureus (GC 4542) (Staphylococcus sp.): 1 µg/mL (≈ 0.685 µM)
- MIC Staphylococcus aureus (GC 4544) (Staphylococcus sp.): 2 µg/mL (≈ 1.37 µM)
- MIC Staphylococcus aureus (GC 4545) (Staphylococcus sp.): 2 µg/mL (≈ 1.37 µM)
- MIC Staphylococcus aureus-SMITH (GC 4543) (Staphylococcus sp.): 1 µg/mL (≈ 0.685 µM)
- MIC Staphylococcus haemolyticus (GC 4546) (Staphylococcus sp.; Staphylococcus haemolyticus (GC 4546)): 1 µg/mL (≈ 0.685 µM)

SMILES: CC(c1ccccc1)C1NC(=O)CNC(=O)C(CO)NC(=O)C(CC2CNC(=N)N2C2OC(CO)C(O)C(O)C2O)NC(=O)C(CC2CNC(=N)N2)NC(=O)C(Cc2ccc(OC3OC(CO)C(OC4OC(CO)C(O)C(OCc5ccc(OCc6ccccc6)cc5)C4O)C(O)C3O)cc2)NC1=O (centres unmarked) [Example 246b]
- MIC Streptococcus agalactiae (GC 4564) (Streptococcus sp.; [1]): 64 µg/mL (≈ 43.8 µM)
- MIC Streptococcus pneumoniae (ATCC 6301) (Streptococcus sp.; [2]): 32 µg/mL (≈ 21.9 µM)
- MIC Streptococcus pneumoniae (GC 1894) (Streptococcus sp.; [3]): 32 µg/mL (≈ 21.9 µM)
- MIC Streptococcus pneumoniae (GC 4565) (Streptococcus sp.; [4]): 64 µg/mL (≈ 43.8 µM)
- MIC Streptococcus pyogenes (GC 4563) (Streptococcus sp.; [5]): 64 µg/mL (≈ 43.8 µM)
- MIC Streptococcus agalactiae (GC 4564) (Streptococcus sp.; [6]): 64 µg/mL (≈ 43.8 µM)
- MIC Streptococcus pneumoniae (ATCC 6301) (Streptococcus sp.; [6]): 32 µg/mL (≈ 21.9 µM)
- MIC Streptococcus pneumoniae (GC 1894) (Streptococcus sp.; [6]): 32 µg/mL (≈ 21.9 µM)
- MIC Streptococcus pneumoniae (GC 4565) (Streptococcus sp.; [6]): 64 µg/mL (≈ 43.8 µM)
- MIC Streptococcus pyogenes (GC 4563) (Streptococcus sp.; [6]): 64 µg/mL (≈ 43.8 µM)
- MIC Escherichia coli (GC 4560) (Escherichia coli): 32 µg/mL (≈ 21.9 µM)
- MIC Enterococcus avium (GC 4558) (Enterococcus sp.): 64 µg/mL (≈ 43.8 µM)
- MIC Enterococcus faecium (GC 4557) (Enterococcus sp.): 32 µg/mL (≈ 21.9 µM)
- MIC Coagulase Negative Staphylococcus (GC 4547) (Staphylococcus sp.): 64 µg/mL (≈ 43.8 µM)
- MIC Coagulase Negative Staphylococcus (GC 4548) (Staphylococcus sp.): 64 µg/mL (≈ 43.8 µM)
- MIC Coagulase Negative Staphylococcus (GC 4549) (Staphylococcus sp.): 32 µg/mL (≈ 21.9 µM)
- MIC Coagulase Negative Staphylococcus (GC 4551) (Staphylococcus sp.): 64 µg/mL (≈ 43.8 µM)
- MIC Coagulase Negative Staphylococcus (GC 6257) (Staphylococcus sp.): 64 µg/mL (≈ 43.8 µM)
- MIC Staphylococcus aureus (ATCC 29213) (Staphylococcus sp.): 64 µg/mL (≈ 43.8 µM)
- MIC Staphylococcus aureus (GC 3051) (Staphylococcus sp.): 64 µg/mL (≈ 43.8 µM)
- MIC Staphylococcus aureus (GC 4541) (Staphylococcus sp.): 64 µg/mL (≈ 43.8 µM)
- MIC Staphylococcus aureus (GC 4542) (Staphylococcus sp.): 64 µg/mL (≈ 43.8 µM)
- MIC Staphylococcus aureus (GC 4544) (Staphylococcus sp.): 64 µg/mL (≈ 43.8 µM)
- MIC Staphylococcus aureus (GC 4545) (Staphylococcus sp.): 64 µg/mL (≈ 43.8 µM)
- MIC Staphylococcus aureus-SMITH (GC 4543) (Staphylococcus sp.): >64 µg/mL
